Results on 6 molecules are retold here after publication PMC8450341 (Frontiers in Physiology, 2021).

Data set [1] deals with rat models of hypoxia-induced pulmonary hypertension. Particulars: cited from earlier work.
The conditions of data set [2]: in humans; ref Iwamoto et al., 2013; cited from earlier work.
A further data set can be described thus: in vivo. Particulars: male, Holstein, bovine, serum, po, 235 mg.
Data set [3] in a line: Serum pharmacokinetics after single oral dose in normoxic calves. Particulars: calves, single oral dose.
Protocol: (§1) Pharmacokinetic parameters were calculated by a non-compartmental model using Phoenix WinNonlin v8.1 ([Wagner, 1993]).
The next data set concerns bovine PH-fibs. Details: method as in Li et al., 2011. Particulars: ref Li et al., 2011; cited from earlier work.
Setting [4] is: ref Cho et al., 2010, Cavasin et al., 2012.

The structures appear in SMILES notation.

Protocol for in vivo: as §1

Consider `Nc1ccccc1NC(=O)c1ccc(CNc2nccc(-c3cccnc3)n2)cc1` [MCD-0103], for which, in data set [1] (setting [4]), the RV function entry was “preserved”; the “RV hypertrophic and pro-fibrotic remodeling” value is “attenuated”.

Consider `Nc1ccccc1NC(=O)c1ccc(CNC(=O)OCc2cccnc2)cc1` [MS-275], for which, in data set [1] (setting [4]), the RV function entry is “preserved”; the “RV hypertrophic and pro-fibrotic remodeling” value is given as “attenuated”.

In general, Tmax refers to the time at which the peak concentration occurs. For `O=C(O)CCC(=O)Nc1ccccc1` [Succininanilic Acid, succinanilic acid], the “metabolite AUC relative to that of vorinostat” value in data set [2] was 10–13 times. For the same molecule, in the data set “in vivo”, the Tmax was 6 h. Further, in data set [3], the “ratio of metabolite AUC to vorinostat AUC” value was about 20 fold.

Turning to `O=C(CCCCCCC(=O)Nc1ccccc1)NO[C@@H]1O[C@H](C(=O)O)[C@@H](O)[C@H](O)[C@H]1O` [Vorinostat glucoronide], the “metabolite AUC relative to that of vorinostat” value in data set [2] was 3–4 times. For the same molecule, in data set [3], the “ratio of metabolite AUC to vorinostat AUC” value is reported as about 3 fold.

For `CCC(=O)CCCCC[C@@H]1NC(=O)[C@H]2CCCCN2C(=O)[C@H]([C@@H](C)CC)NC(=O)[C@H](Cc2cn(OC)c3ccccc23)NC1=O` [apicidin], the activated fibroblast phenotype entry with bovine PH-fibs is on record as “reversed”.

`CCCC(CCC)C(=O)O` [valproic acid]: the RV hypertrophy result in data set [1] (setting [4]) is “attenuated”. For the same molecule, in data set [1] (ref Zhao et al. (2012)), the “hypoxia-induced PH in rats” value was “inhibited”.
